From PubChem BioAssay (NCI)
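These data come from cells grown in 96-well plates and exposed to compound for 48 hours at five concentrations. Here, GI50 denotes the concentration required for 50% inhibition of growth. Definition used: TGI = concentration required for complete inhibition of growth.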

Columns and labels:
Test in all cases: NCI tumour cell line growth inhibition, 48 h
HL-60(TB) leukemia = system: HL-60(TB) leukemia
HCC-2998 colon = system: HCC-2998 colon
LOX IMVI melanoma = system: LOX IMVI melanoma
K-562 leukemia = system: K-562 leukemia
ACHN renal = system: ACHN renal
NCI-H23 lung = system: NCI-H23 lung
A498 renal = system: A498 renal
M14 melanoma = system: M14 melanoma
HCT-116 colon = system: HCT-116 colon
UACC-62 melanoma = system: UACC-62 melanoma
SW-620 colon = system: SW-620 colon
U251 CNS = system: U251 CNS
OVCAR-3 ovarian = system: OVCAR-3 ovarian
BT-549 breast = system: BT-549 breast
HOP-92 NSCLC = system: HOP-92 NSCLC
NCI-H522 lung = system: NCI-H522 lung
SK-MEL-2 melanoma = system: SK-MEL-2 melanoma
SK-OV-3 ovarian = system: SK-OV-3 ovarian
TK-10 renal = system: TK-10 renal
PC-3 prostate = system: PC-3 prostate
786-0 renal = system: 786-0 renal
HOP-62 NSCLC = system: HOP-62 NSCLC
EKVX NSCLC = system: EKVX NSCLC
A549 NSCLC = system: A549 NSCLC
SF-295 CNS = system: SF-295 CNS
OVCAR-5 ovarian = system: OVCAR-5 ovarian
MOLT-4 leukemia = system: MOLT-4 leukemia
MCF7 breast = system: MCF7 breast

O=C(Nc1ccccc1)Nc1ccc(Cl)c(Cl)c1
GI50 (HL-60(TB) leukemia): 3.98 µM | TGI (HL-60(TB) leukemia): 26.9 µM | GI50 (HCC-2998 colon): 4.03 µM | TGI (HCC-2998 colon): > 100 µM | GI50 (LOX IMVI melanoma): 2.51 µM | TGI (LOX IMVI melanoma): 16.3 µM | GI50 (K-562 leukemia): 3.79 µM | TGI (K-562 leukemia): > 100 µM | GI50 (ACHN renal): 3.59 µM | TGI (ACHN renal): 97.1 µM | GI50 (NCI-H23 lung): 2.58 µM | TGI (NCI-H23 lung): > 100 µM | GI50 (A498 renal): 5.04 µM | TGI (A498 renal): 68.5 µM | GI50 (M14 melanoma): 4.64 µM | TGI (M14 melanoma): > 100 µM | GI50 (HCT-116 colon): 3.03 µM | TGI (HCT-116 colon): > 100 µM | GI50 (UACC-62 melanoma): 2.66 µM | TGI (UACC-62 melanoma): > 100 µM | GI50 (SW-620 colon): 3.58 µM | TGI (SW-620 colon): > 100 µM | GI50 (U251 CNS): 3.23 µM | TGI (U251 CNS): 20.8 µM | GI50 (OVCAR-3 ovarian): 2.44 µM | TGI (OVCAR-3 ovarian): 8.76 µM | GI50 (BT-549 breast): 4.99 µM | TGI (BT-549 breast): 85.9 µM | GI50 (HOP-92 NSCLC): 1.52 µM | TGI (HOP-92 NSCLC): 6.12 µM | GI50 (NCI-H522 lung): 1.69 µM | TGI (NCI-H522 lung): 7.67 µM | GI50 (SK-MEL-2 melanoma): 2.32 µM | TGI (SK-MEL-2 melanoma): 9.97 µM | GI50 (SK-OV-3 ovarian): 5.52 µM | TGI (SK-OV-3 ovarian): > 100 µM | GI50 (TK-10 renal): 3.83 µM | TGI (TK-10 renal): 36.2 µM | GI50 (PC-3 prostate): 2.41 µM | TGI (PC-3 prostate): 9.72 µM | GI50 (786-0 renal): 3.7 µM | TGI (786-0 renal): > 100 µM | GI50 (HOP-62 NSCLC): 5.84 µM | TGI (HOP-62 NSCLC): > 100 µM | GI50 (EKVX NSCLC): 2.93 µM | TGI (EKVX NSCLC): > 100 µM | GI50 (A549 NSCLC): 3.04 µM | TGI (A549 NSCLC): > 100 µM | GI50 (SF-295 CNS): 2.89 µM | TGI (SF-295 CNS): 21.5 µM | GI50 (OVCAR-5 ovarian): 8.85 µM | TGI (OVCAR-5 ovarian): > 100 µM | GI50 (MOLT-4 leukemia): 3.58 µM | TGI (MOLT-4 leukemia): 86.8 µM | GI50 (MCF7 breast): 3.14 µM | TGI (MCF7 breast): 73.3 µM
